What was measured:
[1] = Acute toxicity by intravenous route to rats; assay type: in vivo; conditions: rat, in vivo, oxalate acid form except those marked (hydrochloride)
Method: (§1) Acute toxicity tests were carried out on rats and mice. The following results were registered in comparison with butoprozine. The compounds of the invention were used in oxalate acid form except those marked (x) which were tested in hydrochloride form.

rats = assay: Acute toxicity by intravenous route to rats; assay type: in vivo; conditions: oxalate acid form except those marked (hydrochloride)
Method: as §1

[2] = system: blood-flow to the myocardium; assay: Effect on blood-flow to the myocardium, anaesthetized dogs, intravenous; assay type: in vivo, dog
Method: It was undertaken on anaesthetized dogs which received the substance under study by intravenous route. The intensity of the maximum effect on blood-flow to the myocardium was expressed in percentage of the corresponding value before injection. The time required for the maximum effect to decrease by 50% represented the duration of the effect. This time was measured in minutes.

[3] = system: epinephrine-increased blood-pressure (anti-α effect); assay: Antiadrenergic effect: anti-α effect (reduction of epinephrine-increased blood-pressure); assay type: in vivo; conditions: dog
Method: (§2) The purpose of this test was to determine the capacity of the compounds under study to reduce epinephrine-increased blood-pressure (anti-α effect) and epinephrine-accelerated heart rate (anti-β effect) in the dog previously anaesthetized with pentobarbital and atropinized.
(§3) For each dog, the dose of epinephrine was first determined which provoked a reproductible increase by about 100 mm. Hg in the arterial pressure (between 5 and 10 μg/kg). After that, the dose of epinephrine so determined was administered followed by a dose by intravenous route of the compound to be studied. The percentage of reduction of the hypertension provoked by the compound under study in comparison with the hypertension previously obtained (about 100 mm. Hg) was then registered.
(§4) The percentage of reduction of the epinephrine-induced acceleration of heart-rate produced by the compound under study in comparison with the tachycardia previously measured (about 70 beats) was then registered. In both cases, the results were expressed as follows: […]
(§5) + for a <50%-reduction of the increase in pressure or cardiac frequency
(§6) ++ for a ≥50%-reduction of the increase in pressure or cardiac frequency
(§7) +++ for a subtotal reduction of the increase in pressure or cardiac frequency

[4] = system: epinephrine-accelerated heart rate (anti-β effect); assay: Antiadrenergic effect: anti-β effect (reduction of epinephrine-accelerated heart rate); assay type: in vivo; conditions: dog; for inhibition in vivo at 5 mg/kg: dose 5 mg/kg i.v.
Method: as §2, §3, §4, §5, §6, §7

ventricular fibrillation = assay: Anti-arrhythmic properties, LAWSON test (chloroform-provoked arrhythmia), intragastric; assay type: in vivo; conditions: Mus musculus, po, mice, read-out: AD50 (dose protecting 50% of the animals against ventricular fibrillation)
Method: The arrhythmia was provoked by making the animals inhale chloroform to total asphyxia and by later observing the ventricular rhythm. The dose of compound protecting 50% of the animals against ventricular fibrillation i.e. the AD50 was then recorded.

[5] = Acute toxicity by intravenous route to mice; conditions: mouse, in vivo, oxalate acid form except those marked (hydrochloride)
Method: as §1

[6] = Canis lupus familiaris, iv, dose 10 mg/kg i.v., anaesthetized dog, read-out: Max. increase (blood-flow to the myocardium)
[7] = dose 10 mg/kg i.v., anaesthetized dog
[8] = Canis lupus familiaris, iv, dose 10 mg/kg i.v.
[9] = Canis lupus familiaris, iv, dose 5 mg/kg i.v., anaesthetized dog, read-out: Max. increase (blood-flow to the myocardium)
[10] = dose 5 mg/kg i.v., anaesthetized dog

## CCCCN(CCCC)CCCOc1ccc(C(=O)c2c(-c3ccccc3)c(Br)c3ccccn23)cc1Cl.Cl [(*)Br/Cl/H/drawing 49/n-C4H9/3, 1-Bromo-2-phenyl-3-[4-(3-di-n-butylaminopropyl)-oxy-3-chloro-benzoyl]-indolizine hydrochloride]
[1]
  LD50: > 100 mg/kg

## CCCCN(CCCC)CCCOc1ccc(C(=O)c2c(CC)cc3ccccn23)cc1Cl.Cl [(*)H/Cl/H/C2H5/n-C4H9/3, 2-Ethyl-3-[4-(3-di-n-butylaminopropyl)-oxy-3-chloro-benzoyl]-indolizine hydrochloride]
[1]
  LD50: 65 mg/kg

## CCCCc1cc2ccccn2c1C(=O)c1ccc(OCCCN(CCCC)CCCC)c(Cl)c1.Cl [(*)H/Cl/H/n-C4H9/n-C4H9/3, 2-n-butyl-3-[4-(3-di-n-butylaminopropyl)-oxy-3-chloro-benzoyl]-indolizine hydrochloride]
[1]
  LD50: > 50 mg/kg
rats
  LD0: > 50 mg/kg

## CCCCc1oc2ccccc2c1C(=O)c1cc(I)c(OCCN(CC)CC)c(I)c1 [Amiodarone, reference compound]
[2]; [6]
  change in vivo at 10 mg/kg: 36%
[2]; comparative
  Coronarodilating effect / blood-flow to the myocardium, in words: cannot be regarded as a coronarodilator
[2]; [7]
  Time required to decrease to 50% (duration of effect): 7 min
[3]; [8]
  inhibition in vivo at 10 mg/kg: > 50%
[4]; [8]
  inhibition in vivo at 10 mg/kg: > 50%

## CCCCN(CCCC)CCCOc1ccc(C(=O)c2c(CC)c(Br)c3ccccn23)cc1Br [Br/Br/H/C2H5/n-C4H9/3, 1-Bromo-2-ethyl-3-[4-(3-di-n-butylaminopropyl)-oxy-3-bromo-benzoyl]-indolizine]
[2]; [6]
  change in vivo at 10 mg/kg: 60%
[2]; [7]
  Time required to decrease to 50% (duration of effect): 90 min
[3]; dose 10 mg/kg i.v.
  Anti-α effect: +++
[4]; dose 10 mg/kg i.v.
  Anti-β effect: +++

## CCCCN(CCCC)CCCOc1c(C)cc(C(=O)c2c(C)c(Br)c3ccccn23)cc1C [Br/CH3/CH3/CH3/n-C4H9/3, 1-Bromo-2-methyl-3-[4-(3-di-n-butylaminopropyl)-oxy-3,5-dimethyl-benzoyl]-indolizine]
[3]; dose 10 mg/kg i.v.
  Anti-α effect: +++
[4]; [8]
  inhibition in vivo at 10 mg/kg: > 50%
Ventricular fibrillation
  ED50: < 100 mg/kg

## CCCCN(CCCC)CCCOc1ccc(C(=O)c2c(CCC)c(Br)c3ccccn23)cc1Cl [Br/Cl/H/n-C3H7/n-C4H9/3, 1-Bromo-2-n-propyl-3-[4-(3-di-n-butylaminopropyl)-oxy-3-chloro-benzoyl]-indolizine]
[2]; Canis lupus familiaris, iv, dose 2.5 mg/kg i.v., anaesthetized dog, read-out: Max. increase (blood-flow to the myocardium)
  change in vivo at 2.5 mg/kg: 50%
[2]; dose 2.5 mg/kg i.v., anaesthetized dog
  Time required to decrease to 50% (duration of effect): 60 min
[3]; dose 10 mg/kg i.v.
  Anti-α effect: +++
[4]; dose 10 mg/kg i.v.
  Anti-β effect: +++

## CCCCc1c(Br)c2ccccn2c1C(=O)c1ccc(OCCCN(CCC)CCC)c(Cl)c1 [Br/Cl/H/n-C4H9/n-C3H7/3, 1-Bromo-2-n-butyl-3-[4-(3-di-n-propylaminopropyl)-oxy-3-chloro-benzoyl]-indolizine]
[2]; [6]
  change in vivo at 10 mg/kg: 40%
[2]; [7]
  Time required to decrease to 50% (duration of effect): 90 min
[3]; [8]
  inhibition in vivo at 10 mg/kg: > 50%
[4]; [8]
  inhibition in vivo at 10 mg/kg: < 50%

## CCCCc1c(C)c2ccccn2c1C(=O)c1ccc(OCCCN(CCC)CCC)c(Br)c1 [CH3/Br/H/n-C4H9/n-C3H7/3, 1-Methyl-2-n-butyl-3-[4-(3-di-n-propylaminopropyl)-oxy-3-bromo-benzoyl]-indolizine]
[5]
  LD50: 50 mg/kg

## CCCN(CCC)CCCOc1ccc(C(=O)c2c(CC)c(Cl)c3ccccn23)cc1Cl [Cl/Cl/H/C2H5/n-C3H7/3, 1-Chloro-2-ethyl-3-[4-(3-di-n-propylaminopropyl)-oxy-3-chloro-benzoyl]-indolizine]
[2]; Canis lupus familiaris, iv, dose 3.3 mg/kg i.v., anaesthetized dog, read-out: Max. increase (blood-flow to the myocardium)
  change in vivo at 3.3 mg/kg: 60%
[2]; dose 3.3 mg/kg i.v., anaesthetized dog
  Time required to decrease to 50% (duration of effect): 25 min
[3]; dose 3.3 mg/kg i.v.
  Anti-α effect: +++
[4]; dose 3.3 mg/kg i.v.
  Anti-β effect: +++

## CCCCN(CCCC)CCCOc1ccc(C(=O)c2c(CC)c(Cl)c3ccccn23)cc1Cl [Cl/Cl/H/C2H5/n-C4H9/3, 1-Chloro-2-ethyl-3-[4-(3-di-n-butylaminopropyl)-oxy-3-chloro-benzoyl]-indolizine]
[2]; Canis lupus familiaris, iv, dose 1 mg/kg i.v., anaesthetized dog, read-out: Max. increase (blood-flow to the myocardium)
  change in vivo at 1 mg/kg: 40%
[2]; dose 1 mg/kg i.v., anaesthetized dog
  Time required to decrease to 50% (duration of effect): 15 min
[3]; dose 0.5 mg/kg i.v.
  Anti-α effect: +++
[4]; Canis lupus familiaris, iv, dose 0.5 mg/kg i.v.
  inhibition in vivo at 0.5 mg/kg: < 50%
[1]
  LD50: 50 mg/kg

## CCCCc1c(Cl)c2ccccn2c1C(=O)c1ccc(OCCCN(CCCC)CCCC)cc1 [Cl/H/H/n-C4H9/n-C4H9/3, 1-Chloro-2-n-butyl-3-[4-(3-di-n-butylaminopropyl)-oxy-benzoyl]-indolizine]
[2]; [6]
  change in vivo at 10 mg/kg: 60%
[2]; [7]
  Time required to decrease to 50% (duration of effect): 30 min
[3]; dose 10 mg/kg i.v.
  Anti-α effect: +++
[4]; [8]
  inhibition in vivo at 10 mg/kg: > 50%
[1]
  LD50: 50 mg/kg

## CCCCc1cc2ccccn2c1C(=O)c1ccc(OCCCN(CCCC)CCCC)c(Br)c1 [H/Br/H/n-C4H9/n-C4H9/3, 2-n-Butyl-3-[4-(3-di-n-butylaminopropyl)-oxy-3-bromo-benzoyl]-indolizine]
[2]; [9]
  change in vivo at 5 mg/kg: 70%
[2]; [10]
  Time required to decrease to 50% (duration of effect): 60 min
[3]; dose 5 mg/kg i.v.
  Anti-α effect: +++
[3]; dose 10 mg/kg i.v.
  Anti-α effect: +++
[4]; Canis lupus familiaris, iv
  inhibition in vivo at 5 mg/kg: > 50%
[4]; dose 10 mg/kg i.v.
  Anti-β effect: +++
Ventricular fibrillation
  ED50: 170 mg/kg
[1]
  LD50: 60 mg/kg

## CCCCc1cc2ccccn2c1C(=O)c1ccc(OCCCN(CCC)CCC)c(C)c1 [H/CH3/H/n-C4H9/n-C3H7/3, 2-n-Butyl-3-[4-(3-di-n-propylaminopropyl)-oxy-3-methyl-benzoyl]-indolizine]
[3]; Canis lupus familiaris, iv, dose 5 mg/kg i.v.
  inhibition in vivo at 5 mg/kg: > 50%
[4]; Canis lupus familiaris, iv
  inhibition in vivo at 5 mg/kg: < 50%
[5]
  LD50: > 50 mg/kg

## CCCCN(CCCC)CCCOc1c(Cl)cc(C(=O)c2c(C(C)C)cc3ccccn23)cc1Cl [H/Cl/Cl/iso-C3H7/n-C4H9/3, 2-Isopropyl-3-[4-(3-di-n-butylaminopropyl)-oxy-3,5-dichloro-benzoyl]-indolizine]
[2]; [6]
  change in vivo at 10 mg/kg: 30%
[2]; [7]
  Time required to decrease to 50% (duration of effect): 75 min
[3]; [8]
  inhibition in vivo at 10 mg/kg: > 50%
[4]; [8]
  inhibition in vivo at 10 mg/kg: > 50%
[1]
  LD50: > 100 mg/kg

## CCCCN(CCCC)CCCOc1ccc(C(=O)c2c(CC)cc3ccccn23)cc1Cl [H/Cl/H/C2H5/n-C4H9/3, 2-Ethyl-3-[4-(3-di-n-butylaminopropyl)-oxy-3-chloro-benzoyl]-indolizine]
[2]; Canis lupus familiaris, iv, dose 6 mg/kg i.v., anaesthetized dog, read-out: Max. increase (blood-flow to the myocardium)
  change in vivo at 6 mg/kg: 70%
[2]; dose 6 mg/kg i.v., anaesthetized dog
  Time required to decrease to 50% (duration of effect): 45 min
[3]; dose 6 mg/kg i.v.
  Anti-α effect: +++
[4]; Canis lupus familiaris, iv, dose 6 mg/kg i.v.
  inhibition in vivo at 6 mg/kg: > 50%

## CCCN(CCC)CCCOc1ccc(C(=O)c2c(-c3cccc(Br)c3)cc3ccccn23)cc1Cl [H/Cl/H/drawing 16/n-C3H7/3]
[2]; Canis lupus familiaris, iv, dose 8 mg/kg i.v., anaesthetized dog, read-out: Max. increase (blood-flow to the myocardium)
  change in vivo at 8 mg/kg: 45%
[2]; dose 8 mg/kg i.v., anaesthetized dog
  Time required to decrease to 50% (duration of effect): 25 min

## CCCCN(CCCC)CCCOc1ccc(C(=O)c2c(-c3ccc(Br)cc3)cc3ccccn23)cc1Cl [H/Cl/H/drawing 20/n-C4H9/3]
[2]; [6]
  change in vivo at 10 mg/kg: 60%
[2]; [7]
  Time required to decrease to 50% (duration of effect): 25 min

## CCCN(CCC)CCCOc1ccc(C(=O)c2c(C(C)C)cc3ccccn23)cc1Cl [H/Cl/H/iso-C3H7/n-C3H7/3, 2-Isopropyl-3-[4-(3-di-n-propylaminopropyl)-oxy-3-chloro-benzoyl]-indolizine]
[2]; [9]
  change in vivo at 5 mg/kg: 80%
[2]; [10]
  Time required to decrease to 50% (duration of effect): 90 min
[3]; [8]
  inhibition in vivo at 10 mg/kg: > 50%
[4]; [8]
  inhibition in vivo at 10 mg/kg: > 50%

## CCCCc1cc2ccccn2c1C(=O)c1ccc(OCCCN(CCCC)CCCC)c(Cl)c1 [H/Cl/H/n-C4H9/n-C4H9/3, 2-n-Butyl-3-[4-(3-di-n-butylaminopropyl)-oxy-3-chloro-benzoyl]-indolizine]
[2]; [9]
  change in vivo at 5 mg/kg: 75%
[2]; [10]
  Time required to decrease to 50% (duration of effect): 30 min
[3]; dose 10 mg/kg i.v.
  Anti-α effect: +++
[4]; [8]
  inhibition in vivo at 10 mg/kg: > 50%

## CCCCN(CCCC)CCCOc1c(C)cc(C(=O)c2c(CC)c(I)c3ccccn23)cc1C [I/CH3/CH3/C2H5/n-C4H9/3, 1-Iodo-2-ethyl-3-[4-(3-di-n-butylaminopropyl)-oxy-3,5-dimethyl-benzoyl]-indolizine]
[3]; dose 10 mg/kg i.v.
  Anti-α effect: +++
[4]; dose 10 mg/kg i.v.
  Anti-β effect: +++
Ventricular fibrillation
  ED50: 100 mg/kg

From patent US4520026A, “Indolizine derivatives and use as cardiovascular agents” (S. A. Labaz N.V., priority 1982, dated 1985)
